Experimental data taken from PubChem BioAssay (NCI).
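The compound was tested at five concentrations on cells cultured in 96-well plates, with a 48-hour exposure period. Abbreviation: GI50, concentration required for 50% inhibition of growth. TGI: total growth inhibition.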

Columns and labels:
Assay in all cases: NCI-60 cell line screen, 48 h; in the data active = GI50 below about 0.43 µM; inactive = the rest
A498 renal = system: A498 renal
SN12C renal = system: SN12C renal
CAKI-1 renal = system: CAKI-1 renal
SK-MEL-2 melanoma = system: SK-MEL-2 melanoma
EKVX NSCLC = system: EKVX NSCLC
LOX IMVI melanoma = system: LOX IMVI melanoma
HS 578T breast = system: HS 578T breast
NCI-H522 lung = system: NCI-H522 lung
DU-145 prostate = system: DU-145 prostate
NCI-H226 lung = system: NCI-H226 lung
HT29 colon = system: HT29 colon
KM12 colon = system: KM12 colon
M14 melanoma = system: M14 melanoma
U251 CNS = system: U251 CNS
OVCAR-8 ovarian = system: OVCAR-8 ovarian
K-562 leukemia = system: K-562 leukemia
786-0 renal = system: 786-0 renal
OVCAR-4 ovarian = system: OVCAR-4 ovarian
NCI-H23 lung = system: NCI-H23 lung
SR leukemia = system: SR leukemia
HCC-2998 colon = system: HCC-2998 colon
SF-539 CNS = system: SF-539 CNS
NCI/ADR-RES ovarian = system: NCI/ADR-RES ovarian
HCT-116 colon = system: HCT-116 colon
IGROV1 ovarian = system: IGROV1 ovarian
MDA-MB-231 breast = system: MDA-MB-231 breast
UO-31 renal = system: UO-31 renal
TK-10 renal = system: TK-10 renal
SW-620 colon = system: SW-620 colon
RXF 393 renal = system: RXF 393 renal
SK-MEL-28 melanoma = system: SK-MEL-28 melanoma
COLO 205 colon = system: COLO 205 colon
PC-3 prostate = system: PC-3 prostate
SK-MEL-5 melanoma = system: SK-MEL-5 melanoma
SNB-75 CNS = system: SNB-75 CNS
MALME-3M melanoma = system: MALME-3M melanoma
UACC-257 melanoma = system: UACC-257 melanoma
HL-60(TB) leukemia = system: HL-60(TB) leukemia
OVCAR-5 ovarian = system: OVCAR-5 ovarian
UACC-62 melanoma = system: UACC-62 melanoma
NCI-H460 lung = system: NCI-H460 lung
OVCAR-3 ovarian = system: OVCAR-3 ovarian
CCRF-CEM leukemia = system: CCRF-CEM leukemia
SF-268 CNS = system: SF-268 CNS
SNB-19 CNS = system: SNB-19 CNS
ACHN renal = system: ACHN renal
MDA-MB-435 = system: MDA-MB-435
A549 NSCLC = system: A549 NSCLC
HCT-15 colon = system: HCT-15 colon
SK-OV-3 ovarian = system: SK-OV-3 ovarian
HOP-92 NSCLC = system: HOP-92 NSCLC
MCF7 breast = system: MCF7 breast
HOP-62 NSCLC = system: HOP-62 NSCLC
RPMI-8226 leukemia = system: RPMI-8226 leukemia
MOLT-4 leukemia = system: MOLT-4 leukemia
BT-549 breast = system: BT-549 breast
SF-295 CNS = system: SF-295 CNS

COc1ccc2c(=O)cc(-c3ccccc3)[nH]c2c1
> 58.4 µM: TGI (RPMI-8226 leukemia)
> 42 µM: TGI (NCI-H460 lung)
active: GI50 (A498 renal) 0.263 µM | GI50 (CAKI-1 renal) 0.323 µM | GI50 (HT29 colon) 0.379 µM | GI50 (KM12 colon) 0.405 µM | GI50 (SR leukemia) 0.258 µM | GI50 (COLO 205 colon) 0.364 µM | GI50 (PC-3 prostate) 0.389 µM | GI50 (SK-MEL-5 melanoma) 0.323 µM | GI50 (UACC-257 melanoma) 0.335 µM | GI50 (HL-60(TB) leukemia) 0.256 µM | GI50 (NCI-H460 lung) 0.397 µM | GI50 (OVCAR-3 ovarian) 0.408 µM | GI50 (MDA-MB-435) 0.18 µM | GI50 (HOP-92 NSCLC) 0.378 µM | GI50 (MCF7 breast) 0.387 µM | GI50 (SF-295 CNS) 0.33 µM
1.19 µM: TGI (HL-60(TB) leukemia)
3.37 µM: TGI (SF-539 CNS)
1.84 µM: TGI (SF-295 CNS)
5.32 µM: TGI (A498 renal)
2.14 µM: TGI (OVCAR-3 ovarian)
14.2 µM: TGI (NCI-H522 lung)
8.9 µM: TGI (HCC-2998 colon)
> 27.7 µM: TGI (BT-549 breast)
> 46.6 µM: TGI (OVCAR-8 ovarian)
inactive: GI50 (SN12C renal) 3.16 µM | GI50 (EKVX NSCLC) 2.25 µM | GI50 (LOX IMVI melanoma) 4.17 µM | GI50 (HS 578T breast) 0.758 µM | GI50 (NCI-H522 lung) 0.698 µM | GI50 (DU-145 prostate) 1.24 µM | GI50 (NCI-H226 lung) 2.14 µM | GI50 (M14 melanoma) 5.93 µM | GI50 (U251 CNS) 0.707 µM | GI50 (OVCAR-8 ovarian) 2.64 µM | GI50 (K-562 leukemia) 0.439 µM | GI50 (786-0 renal) 4.56 µM | GI50 (OVCAR-4 ovarian) 3.28 µM | GI50 (NCI-H23 lung) 1.25 µM | GI50 (HCC-2998 colon) 1.27 µM | GI50 (SF-539 CNS) 0.584 µM | GI50 (NCI/ADR-RES ovarian) 0.547 µM | GI50 (HCT-116 colon) 0.446 µM | GI50 (IGROV1 ovarian) 0.578 µM | GI50 (MDA-MB-231 breast) 1.92 µM | GI50 (UO-31 renal) 0.716 µM | GI50 (TK-10 renal) > 100 µM | GI50 (SW-620 colon) 0.444 µM | GI50 (RXF 393 renal) 0.762 µM | GI50 (SK-MEL-28 melanoma) 7.84 µM | GI50 (MALME-3M melanoma) 0.684 µM | GI50 (OVCAR-5 ovarian) 22.2 µM | GI50 (UACC-62 melanoma) 0.431 µM | GI50 (CCRF-CEM leukemia) 1.48 µM | GI50 (SF-268 CNS) 1.28 µM | GI50 (SNB-19 CNS) 1.75 µM | GI50 (ACHN renal) 4.22 µM | GI50 (A549 NSCLC) 0.67 µM | GI50 (HCT-15 colon) 0.518 µM | GI50 (SK-OV-3 ovarian) 1.17 µM | GI50 (HOP-62 NSCLC) 9.74 µM | GI50 (RPMI-8226 leukemia) 0.564 µM | GI50 (MOLT-4 leukemia) 1.25 µM | GI50 (BT-549 breast) 0.56 µM
> 30.8 µM: TGI (SK-OV-3 ovarian)
7.4 µM: TGI (SK-MEL-5 melanoma)
6.15 µM: TGI (NCI/ADR-RES ovarian)
0.523 µM: TGI (MDA-MB-435)
> 100 µM: TGI (SN12C renal) | TGI (CAKI-1 renal) | TGI (SK-MEL-2 melanoma) | TGI (EKVX NSCLC) | TGI (LOX IMVI melanoma) | TGI (HS 578T breast) | TGI (NCI-H226 lung) | TGI (HT29 colon) | TGI (KM12 colon) | TGI (M14 melanoma) | TGI (U251 CNS) | TGI (K-562 leukemia) | TGI (786-0 renal) | TGI (OVCAR-4 ovarian) | TGI (NCI-H23 lung) | TGI (HCT-116 colon) | TGI (IGROV1 ovarian) | TGI (MDA-MB-231 breast) | TGI (UO-31 renal) | TGI (TK-10 renal) | TGI (SW-620 colon) | TGI (SK-MEL-28 melanoma) | TGI (PC-3 prostate) | TGI (SNB-75 CNS) | TGI (MALME-3M melanoma) | TGI (UACC-257 melanoma) | TGI (OVCAR-5 ovarian) | TGI (UACC-62 melanoma) | TGI (CCRF-CEM leukemia) | TGI (SF-268 CNS) | TGI (SNB-19 CNS) | TGI (ACHN renal) | TGI (HCT-15 colon) | TGI (HOP-92 NSCLC) | TGI (MCF7 breast) | TGI (HOP-62 NSCLC) | TGI (MOLT-4 leukemia)
1.55 µM: TGI (COLO 205 colon)
> 53.1 µM: TGI (DU-145 prostate)
